Experimental data as given in US20230115208A1, “RING-FUSED THIAZOLINO 2-PYRIDONES, METHODS FOR PREPARATION THEREOF AND THEIR USE IN THE TREATMENT AND/OR PREVENTION OF TUBERCULOSIS” (QURETECH BIO AB, priority 2016, published 2023).

Test system: katGFSAA6 Mtb (INH-resistant, frameshift at amino acid 6 in katG)
Type: cell-based, Mycobacterium tuberculosis

Row | Compound | doubling time
1 | O=C(O)[C@@H]1CSc2c(C3CC3)c(Cc3cccc4ccccc34)cc(=O)n21 [Example 1, (3R)-7-Cyclopropyl-6-[(1-naphthyl)methyl]-4-oxo-1-thia-3a-aza-3-indancarboxylic acid] | 48 h
2 | NNC(=O)c1ccncc1 [INH, isonicotinylhydrazide, reference compound] | 55 h
